# Measurements published in paper PMC10447463, “Data-mining unveils structure–property–activity correlation of viral infectivity enhancing self-assembling peptides” (Nature Communications, 2023).
# Like-named read-outs stand apart in the source and are kept apart here.
# What was measured:
# [1] = system: HIV-1 infection of TZM-bl cells; test: HIV-1 infectivity enhancement assay, β-galactosidase luminescence; assay type: cell-based
# [2] = assay type: physicochemical; design: key to Fibril / Fibril Formation / TEM 2cat / Fibril: 1 = fibrils present; 0 non-fibrillar structures
# [3] = assay type: physicochemical
# How it was run: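 Preformed peptide fibrils (1 mg/mL) mixed with 50 µM ThT in PBS, 15 min at RT, fluorescence ex 440/em 488 nm versus PBS blank, triplicates. Zeta potential: peptides at 1 mg/mL in PBS pH 7.4, aged 1 d at RT, diluted in 1 mM KCl, Smoluchowski from electrophoretic mobility.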
# [4] = Feb2021; figures match the 1.3 µM column
# [5] = Feb2021; infectivity relative to virus only
# [6] = Feb2021; log10 of infectivity relative to EF-C
# [7] = Feb2021; n-fold infectivity relative to EF-C
# [8] = infectivity class (low / medium / high) of each library peptide; main list in c1-c6, same classes repeated in sub-lists of sequences containing the hydrophobicity/charge patterns P+,H0,P+,H0,P0,H0,P0; P+,H0,P0,H0,P0,H0,P0; P+,H0,P0,H0
# [9] = log10 of HIV-1 infection of TZM-bl cells relative to EF-C; Fig S15 source data; asymmetric std dev errors
# [10] = ThT fluorescence relative to blank, blank = 42.1851851851852
# [11] = infectivity class (low / medium / high) of the peptide in the sequence-pattern analysis, Fig. S22-A4; class limits not given
# [12] = infectivity enhancement relative to EF-C (=1); Feb2021 run
# [13] = infectivity n-fold relative to virus only; Feb2021 run
# [14] = log10 of infectivity relative to EF-C; Feb2021 run
# [15] = ThT fluorescence relative to blank (42.1851851851852 a.u.)
# [16] = Feb2021 run; infectivity n-fold relative to virus alone
# [17] = Feb2021 run; log10 of infectivity relative to EF-C
# [18] = Feb2021 run; n-fold infectivity relative to EF-C
# [19] = relative to blank 42.1851851851852 a.u.
Substance,"Absolute Infectivity / RLU /s (Feb2021) [1, 4] [RLU /s]","n-fold to virus (Feb2021) [1, 5]","Log10 of Rel to EFC (Feb2021) [1, 6]","Rel-to EFC (Feb-2021) [1, 7]","infectivity [1, 8]","Log10 Inf. rel. to EF-C [1, 9]","TEM: 1= fibrils, 0= aggregates (micelle), 0.5 = aggregates and fibrils, -1 = nothing obersved, STD prep [2]","Tht rel to blank (42.1851851851852) [3, 10]",Tht category (> 1.5 to blank = +) ([3]; category 1/0),"Rel-to EFC (Feb-2021) [1, 12]","n-fold to virus (Feb2021) [1, 13]","Log10 of Rel to EFC (Feb2021) [1, 14]","Tht rel to blank (42.1851851851852) [3, 15]",other results
RGECKFKFQF [CN16],7411,13.99,-0.4776,0.3329,medium,-0.4776,1,2.392,"1 (ThT. Cat is 1, if Rel. ThT >2)",,,,,
KVKVQVV [TG2],213.3,0.3832,-2.04,0.009121,low,-2.04,0.5,1.263,0 (ThT-inactive (N-Fold <2)),0.009121,0.3832,-2.04,1.263,"infectivity [1, 11]: low"
EIEIQINMWQ [VH8],,,,,medium,-0.881,0.5,,,0.1315,5.526,-0.881,4.145,
KIKIKIKIWW [TM21],,,,,medium,-0.4266,0,,"1 (ThT. Cat is 1, if Rel. ThT >2)",,,,,"n-fold to virus (Feb2021) [1, 16]: 15.73; Log10 of Rel to EFC (Feb2021) [1, 17]: -0.4266; Rel-to EFC (Feb-2021) [1, 18]: 0.3744; Tht rel to blank (42.1851851851852) [3, 19]: 3.538"
KIKQIIN [JGA3],,,,,low,-1.4,0.5,,,0.0398,1.672,-1.4,1.148,"Rel-to EFC ([1]; Fig S8 panels B, D; infectivity enhancement relative to EF-C): 0.0398; n-fold to virus ([1]; Fig S8 panels B, D; infectivity n-fold relative to virus alone): 1.672"
KYKYQY [KB1],230,0.4313,-1.989,0.01026,low,-1.9887,0,6.106,"1 (ThT. Cat is 1, if Rel. ThT >2)",,,,,
KIKIQINMWQRGD [VH17-II],,,,,low,-1.917,0,,0 (ThT-inactive (N-Fold <2)),,,,,"n-fold to virus (Feb2021) [1, 16]: 0.5086; Log10 of Rel to EFC (Feb2021) [1, 17]: -1.917; Rel-to EFC (Feb-2021) [1, 18]: 0.0121; infectivity [1, 11]: low; Tht category (> 1.5 to blank = +) ([3]; FigS26): 0 (Tht category (> 1.5 to blank = +)); Tht rel to blank (42.1851851851852) [3, 19]: 1.548"
KAKLTCT,,,,,,,,,,,,,,"Inf. rel. EF-C ([1]; HIV-1 infection relative to EF-C; Fig 23 plot, panels A and B; mean of 3 values): 0.0665; Inf. rel. EF-C ([1]; HIV-1 infection relative to EF-C; Fig 23 plot, single data point, replicate 1): 0.09602; Inf. rel. EF-C ([1]; HIV-1 infection relative to EF-C; Fig 23 plot, single data point, replicate 2): 0.05821; Inf. rel. EF-C ([1]; HIV-1 infection relative to EF-C; Fig 23 plot, single data point, replicate 3): 0.04527; Log10 Infection Rel EF-C ([1]; log10 of infection relative to EF-C, Figure 6C): -1.177; Inf. rel. EF-C ([1]; n-fold infection vs virus only, relative to that of EF-C, 1.3 µM peptide): 0.07; Fibril / Fibril Formation ([2]; TEM, 1 mg/mL, uranyl acetate stain, qualitative): 0; ThT Cat. / ThT-Fluorescence (categorical) ([3]; ThT-active if fluorescence at least twice the control): 0 (ThT-inactive (N-Fold <2))"
KVKVKVQV [JG14 / TG14],466.7,0.7254,-1.763,0.01726,low,-1.763,0.5,5.801,"1 (ThT. Cat is 1, if Rel. ThT >2)",,,,,
